Measured values published in patent US11731943B2, “Therapeutic compounds, compositions and methods of use thereof” (priority 2016, dated 2023).
pIC50, pKi: −log10 of the molar value. Like-named read-outs stand apart in the source and are kept apart here.

Experiments:
[1] = target: isolated recombinant JAK1 kinase domain (Homo sapiens (Human), UniProt P23458); assay: JAK1 enzyme assay (Caliper LabChip, Ki); assay type: biochemical
How it was run: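 Recombinant human JAK1 kinase domain phosphorylating an N-terminally 5-carboxyfluorescein-labelled JAK3-derived peptide, 30 min at 22 °C, stopped with EDTA (50 mM final). Phosphorylated fraction of total peptide read by Caliper LabChip mobility shift; Ki from Morrison tight-binding fit corrected for ATP competition (Ki=Ki,app/(1+[ATP]/Km,app)).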

[2] = test system: JAK1-dependent STAT6 phosphorylation downstream of IL-13 stimulation in BEAS-2B human bronchial epithelial cells; assay: JAK1 pathway assay in BEAS-2B cells (IL-13-pSTAT6, MSD); assay type: cell-based
[3] = target: isolated recombinant JAK2 kinase domain (Homo sapiens (Human), UniProt O60674); assay: JAK2 enzyme assay (Caliper LabChip, Ki); assay type: biochemical
Chain of isolated recombinant JAK2 kinase domain (O60674 849-1124): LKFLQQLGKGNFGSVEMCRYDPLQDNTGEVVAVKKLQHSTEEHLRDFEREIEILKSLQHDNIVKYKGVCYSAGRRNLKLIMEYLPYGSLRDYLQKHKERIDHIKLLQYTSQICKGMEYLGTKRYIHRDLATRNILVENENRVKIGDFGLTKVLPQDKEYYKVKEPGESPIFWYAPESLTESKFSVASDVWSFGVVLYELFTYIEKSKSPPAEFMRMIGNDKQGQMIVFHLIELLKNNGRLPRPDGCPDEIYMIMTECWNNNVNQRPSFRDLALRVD
How it was run: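 Recombinant human JAK1 or JAK2 kinase domain phosphorylating a 5-carboxyfluorescein-labelled JAK3-derived peptide; 30 min at 22 °C, stopped with EDTA (50 mM final). Phosphorylated product measured as a fraction of total peptide by Caliper LabChip mobility shift.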

[4] = Homo sapiens, BEAS-2B, BEAS-2B cells, IL-13 stimulation, read-out: IL-13 p-STAT6 BEAS-2B IC50
[5] = BEAS-2B cells, IL-13 stimulation, read-out: IL-13 p-STAT6 BEAS-2B IC50

Chain of isolated recombinant JAK1 kinase domain (P23458 875-1153): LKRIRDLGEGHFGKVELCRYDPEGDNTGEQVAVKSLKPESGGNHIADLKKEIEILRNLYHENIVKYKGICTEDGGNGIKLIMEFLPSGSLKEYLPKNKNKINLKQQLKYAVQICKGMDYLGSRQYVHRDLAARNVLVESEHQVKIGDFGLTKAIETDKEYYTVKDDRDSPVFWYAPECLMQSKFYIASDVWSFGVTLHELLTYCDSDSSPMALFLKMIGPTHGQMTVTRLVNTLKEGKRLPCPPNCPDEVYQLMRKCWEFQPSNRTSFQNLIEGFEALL

Row | SMILES | pKi ([1]; read-out: JAK1 Ki) | pIC50 [2, 4] | pKi [3] | pKi [1] | pIC50 ([2]; Homo sapiens, BEAS-2B, read-out: IL-13 p-STAT6 BEAS-2B IC50, BEAS-2B cells, IL-13 stimulation) | pIC50 [2, 5]
1 | C#Cc1ccc(OC2(C)CN(C3CCC(CC#N)(n4cc(C(N)=O)c(NC(=O)C5CC5)n4)CC3)C2)cc1 (stereo not drawn) [Example 294, 1-(1-(Cyanomethyl)-4-(3-(4-ethynylphenoxy)-3-methylazetidin-1-yl)cyclohexyl)-3-(cyclopropanecarboxamido)-1H-pyrazole-4-carboxamide] | 9.13 | 7.33 | 8.96 |  |  | 
2 | CCOP(=O)(OCC)c1ccc(Nc2nn([C@]3(CC#N)CC[C@@H](N4CC(C(F)(F)F)C4)CC3)cc2C(N)=O)cc1 [Example 303, Diethyl (4-((4-carbamoyl-1-((1R,4R)-1-(cyanomethyl)-4-(3-(trifluoromethyl)azetidin-1-yl)cyclohexyl)-1H-pyrazol-3-yl)amino)phenyl)phosphonate] | 9.41 | 7.47 | 9.18 |  |  | 
3 | C#CC1CC1C(=O)Nc1nn(C2(CC#N)CCN(Cc3ccc(-c4ccccc4)cc3)CC2F)cc1C(N)=O (stereo not drawn) [Example 254, 1-[4-(cyanomethyl)-3-fluoro-1-[(4-phenylphenyl)methyl]-4-piperidyl]-3-[(2-ethynylcyclopropanecarbonyl)amino]pyrazole-4-carboxamide] | 9.37 | 7.37 | 9.09 |  |  | 
4 | COC(=O)Nc1nn(C2(CC#N)CCN(Cc3ccc(-c4ccccc4)c(O)c3F)CC2F)cc1C(N)=O (stereo not drawn) [Example 263, methyl N-[4-carbamoyl-1-[4-(cyanomethyl)-3-fluoro-1-[(2-fluoro-3-hydroxy-4-phenyl-phenyl)methyl]-4-piperidyl]pyrazol-3-yl]carbamate] | 9.52 | 7.60 | 9.62 |  |  | 
5 | COC(=O)Nc1nn(C2(CC#N)CCN(Cc3cc(O)c(-c4ccccc4)cc3F)CC2)cc1C(N)=O [Example 206, methyl N-[4-carbamoyl-1-[4-(cyanomethyl)-1-[(2-fluoro-5-hydroxy-4-phenyl-phenyl)methyl]-4-piperidyl]pyrazol-3-yl]carbamate] | 9.74 | 7.48 | 9.52 |  |  | 
6 | N#CC[C@]1(n2cc(C(N)=O)c(NC(=O)C3CC3)n2)CC[C@@H](N2CC(F)C2)CC1 [Example 180, 1-[1-(cyanomethyl)-4-(3-fluoroazetidin-1-yl)cyclohexyl]-3-(cyclopropanecarbonylamino) pyrazole-4-carboxamide] |  |  | 7.76 | 8.26 | 6.77 | 
7 | N#CCC1(n2cc(C(N)=O)c(NC(=O)C3CC3)n2)CCN(Cc2ccc(Br)c(F)c2)CC1 [Example 77] | 8.59 | 6.64 | 7.35 |  |  | 
8 | N#CCC1(n2cc(C(N)=O)c(NC(=O)C3CC3)n2)CCN(Cc2ccc(-c3ccccc3)cc2O)CC1 [Example 204, 1-[4-(cyanomethyl)-1-[(2-hydroxy-4-phenyl-phenyl)methyl]-4-piperidyl]-3-(cyclopropanecarbonylamino) pyrazole-4-carboxamide] | 9.00 | 7.30 | 8.74 |  |  | 
9 | COC(=O)Nc1nn(C2(CC#N)CCN(CC3CCC(c4ccccc4)CC3)CC2F)cc1C(N)=O (stereo not drawn) [Example 235, methyl N-[4-carbamoyl-1-[4-(cyanomethyl)-3-fluoro-1-[(4-phenylcyclohexyl)methyl]-4-piperidyl]pyrazol-3-yl]carbamate] | 9.49 | 7.59 | 9.17 |  |  | 
10 | N#CCC1(n2cc(C(N)=O)c(NC(=O)C3CC3)n2)CCN(Cc2ccc(-n3nccn3)cc2)CC1F (stereo not drawn) [Example 199, 1-[4-(cyanomethyl)-3-fluoro-1-[[4-(triazol-2-yl)phenyl]methyl]-4-piperidyl]-3-(cyclopropanecarbonylamino) pyrazole-4-carboxamide] | 9.28 | 7.19 | 9.26 |  |  | 
11 | N#CCC1(n2cc(C(N)=O)c(NC(=O)C3CC3C#N)n2)CCN(CC2CCC(c3ccccc3)CC2)CC1F (stereo not drawn) [Example 230, 3-[(2-cyanocyclopropanecarbonyl)amino]-1-[4-(cyanomethyl)-3-fluoro-1-[(4-phenylcyclohexyl)methyl]-4-piperidyl]pyrazole-4-carboxamide] | 9.29 |  | 8.74 |  |  | 7.22
12 | CCS(=O)(=O)Nc1cccc(CN2CCC(CC#N)(n3cc(C(N)=O)c(NC(=O)C4CC4)n3)CC2)c1 [Example 75] | 8.57 | < 6.00 | 7.85 |  |  | 
13 | Cn1ccc(-c2ccc(CN3CCC(CC#N)(n4cc(C(N)=O)c(NC(=O)C5CC5)n4)CC3)cc2)n1 [Example 82] | 8.31 | 6.16 | 7.84 |  |  | 
14 | CC(=O)Nc1cccc(CN2CCC(CC#N)(n3cc(C(N)=O)c(NC(=O)C4CC4)n3)CC2)c1 [Example 76] | 8.41 | < 6.00 | 7.43 |  |  | 
15 | COC(=O)Nc1nn(C2(CC#N)CCN(Cc3cc(O)ccc3Cl)CC2F)cc1C(N)=O (stereo not drawn) [Example 273, methyl N-[4-carbamoyl-1-[1-[(2-chloro-5-hydroxy-phenyl)methyl]-4-(cyanomethyl)-3-fluoro-4-piperidyl]pyrazol-3-yl]carbamate] | 9.48 | 7.12 | 9.51 |  |  | 
16 | COC(=O)Nc1nn(C2(CC#N)CCN(Cc3ccc(-c4ccoc4)nc3F)CC2F)cc1C(N)=O (stereo not drawn) [Example 239, methyl N-[4-carbamoyl-1-[4-(cyanomethyl)-3-fluoro-1-[[2-fluoro-6-(3-furyl)-3-pyridyl]methyl]-4-piperidyl]pyrazol-3-yl]carbamate] | 9.29 | 7.17 | 9.05 |  |  | 
17 | Cc1cnn(-c2ccc(CN3CCC(CC#N)(n4cc(C(N)=O)c(NC(=O)C5CC5)n4)CC3)cc2)n1 [Example 253, 1-[4-(cyanomethyl)-1-[[4-(4-methyltriazol-2-yl)phenyl]methyl]-4-piperidyl]-3-(cyclopropanecarbonylamino) pyrazole-4-carboxamide] | 9.00 | 7.25 | 8.25 |  |  | 
18 | N#CCC1(n2cc(C(N)=O)c(NC(=O)C3CC3C#N)n2)CCN(Cc2ccc(-c3ccccc3)cc2F)CC1F (stereo not drawn) [Example 219, 3-[(2-cyanocyclopropanecarbonyl)amino]-1-[4-(cyanomethyl)-3-fluoro-1-[(2-fluoro-4-phenyl-phenyl)methyl]-4-piperidyl]pyrazole-4-carboxamide] | 8.77 |  | 8.44 |  |  | 7.17
19 | Cc1c(CN2CCC(CC#N)(n3cc(C(N)=O)c(NC(=O)C4CC4)n3)C(F)C2)ccc(-c2ccccc2)c1O (stereo not drawn) [Example 213, 1-[4-(cyanomethyl)-3-fluoro-1-[(3-hydroxy-2-methyl-4-phenyl-phenyl)methyl]-4-piperidyl]-3-(cyclopropanecarbonylamino) pyrazole-4-carboxamide] | 9.43 | 7.66 | 9.55 |  |  | 
20 | CCC1(n2cc(C(N)=O)c(Nc3ccc(S(=O)(=O)C(F)F)cc3)n2)CCN(C(=O)CC#N)CC1 [Example 304] | 9.31 | 6.66 | 8.55 |  |  | 
21 | N#CC[C@]1(n2cc(C(N)=O)c(NC(=O)C3CC3)n2)CCN(Cc2ccccc2)C[C@@H]1F [Example 164, 1-[1-benzyl-4-(cyanomethyl)-3-fluoro-4-piperidyl]-3-(cyclopropanecarbonylamino) pyrazole-4-carboxamide] | 8.57 | 6.56 | 8.05 |  |  | 
22 | N#CCC1(n2cc(C(N)=O)c(NC(=O)C3CC3)n2)CCN(Cc2ccc(-c3ccccc3)nc2)CC1F (stereo not drawn) [Example 193, 1-[4-(cyanomethyl)-3-fluoro-1-[(6-phenyl-3-pyridyl)methyl]-4-piperidyl]-3-(cyclopropanecarbonylamino) pyrazole-4-carboxamide] | 9.48 | 7.32 | 9.59 |  |  | 
23 | COC(=O)Nc1nn(C2(CC#N)CCN(Cc3cc(C(F)F)ccc3F)CC2F)cc1C(N)=O (stereo not drawn) [Example 283, methyl N-[4-carbamoyl-1-[4-(cyanomethyl)-1-[[5-(difluoromethyl)-2-fluoro-phenyl]methyl]-3-fluoro-4-piperidyl]pyrazol-3-yl]carbamate] | 8.85 | 7.11 | 8.54 |  |  | 
24 | COc1ccc(-c2ccc(CN3CCC(CC#N)(n4cc(C(N)=O)c(NC(=O)C5CC5)n4)CC3)cc2)cc1 [Example 153, 1-[4-(cyanomethyl)-1-[[4-(4-methoxyphenyl)phenyl]methyl]-4-piperidyl]-3-(cyclopropanecarbonylamino) pyrazole-4-carboxamide] | 8.96 | 6.99 | 7.51 |  |  | 
25 | N#CCC1(n2cc(C(N)=O)c(NC(=O)C3CC3C#N)n2)CCN(Cc2ccc(-c3ccccc3)cc2)CC1F (stereo not drawn) [Example 192, 3-[(2-cyanocyclopropanecarbonyl)amino]-1-[4-(cyanomethyl)-3-fluoro-1-[(4-phenylphenyl)methyl]-4-piperidyl]pyrazole-4-carboxamide] | 9.46 | 7.55 | 8.92 |  |  | 
26 | N#CCC1(n2cc(C(N)=O)c(NC(=O)C3CC3)n2)CCN(C(=O)OCC2CC2)CC1 [Example 17, Cyclopropylmethyl 4-(4-carbamoyl-3-(cyclopropanecarboxamido)-1H-pyrazol-1-yl)4-(cyanomethyl) piperidine-1-carboxylate] | 8.40 | 6.02 | 7.16 |  |  | 
